The subject of experiment [1] is KRAS G12D mutated AGS human gastric adenocarcinoma cells. Nature of the experiment: Proliferation inhibition of KRAS G12D mutant AGS cells (CellTiter-Glo, 3 days; IC50 and single-point inhibition rate at 1 μM). The class given is cell-based. Particulars: 72 h, 3 days incubation, max concentration 10 μM. The protocol:
This experiment assessed and validated the proliferation inhibitory activity of some compounds of the present invention against KRAS G12D mutant AGS cells.
Incubate at 37° C., 5% CO2, 95% humidity.
The following materials, instruments, and reagents were used in this experiment: Fetal Bovine Serum FBS (GIBCO, Cat #10099-141); CellTiter-Glo® Luminescent Cell Viability Assay (Promega, Cat #G7572); 96-well clear flat-bottom black-wall plate (Corning®, Cat #3603); SpectraMax multimode microplate reader (MD, 2104-0010A); CO2 Incubator (Thermo Scientific, Model 3100 Series); Biosafety cabinet (Thermo Scientific, Model 1300 Series A2); Inverted microscope (Olympus, CKX41SF); AGS cell line was purchased from Nanjing Kebai Biotechnology Co., Ltd., under the lot number CBP60476.
Cell culture and inoculation: The cells in the logarithmic growth phase were harvested, and cell counting was performed using a platelet counter. The cell viability was detected by Trypan Blue exclusion method to ensure that the cell viability was above 90%. The cell concentration was adjusted. Then, 90 μL of the cell suspension was added to each well of a 96-well plate respectively, and the cells in the 96-well plate were cultured at 37° C. and 5% CO2.
Drug dilution and addition: a) For the preparation of drugs for single-point inhibition rate determination: A 10-fold concentrated drug solution was prepared. 10 μL of the drug solution was added to each well of the 96-well plate inoculated with cells to make the working concentration 1 μM, and three replicate wells were set for each drug concentration; b) For the preparation of drugs for IC50 determination: A 10-fold concentrated drug solution was prepared. 10 μL of the drug solution was added to each well of the 96-well plate inoculated with cells to make the maximum working concentration 10 μM, with a 3.16× dilution and a total of 9 concentrations. Three replicate wells were set for each drug concentration. The cells in the 96-well plate with the added drugs were incubated at 37° C. and 5% CO2 for another 3 days, and then the CTG assay was performed.
The CTG reagent was thawed, and the cell plate was equilibrated to room temperature for 30 minutes. An equal volume of CTG solution was added to each well, and the plate was shaken on an orbital shaker for 5 minutes to lyse the cells. The cell plate was placed at room temperature for 20 minutes to stabilize the luminescence signal, and then the luminescence value was read.
The data were analyzed using GraphPad Prism 7.0 software. The data were fitted by nonlinear S-curve regression to obtain the dose-response curve, and the IC50 value was calculated accordingly.
A general note: Cellular ATP, detected with luciferase, serves as a proxy for viable cell number.

Experiment [2] has as its system KRAS G12D mutated AGS (3D) cells. As to the kind of experiment: Proliferation inhibition of KRAS G12D mutated AGS (3D) cells (methylcellulose 3D culture, CTG, 120 h). The experiment is classed as cell-based. Conditions: Homo sapiens. The protocol: The inhibitory effect of representative compounds on the 3D proliferation of the AGS cell line was evaluated by non-adherent, spherical growth in a methylcellulose 3D culture medium.
The following materials, instruments and reagents were used in this experiment: Culture medium RPMI1640 (HyClone, Cat #SH30809.01); Fetal bovine serum FBS (GBICO, Cat #10099-141); CellTiter-Glo® Luminescent Cell Viability Assay (Novozymes Nanjing, Cat #DD1101-04); 96-well Polystyrene microplates (black-wall) (Greiner Bio one, Cat. #655096); Methylcellulose (SIGMA, CAS: 9004-67-5); AGS cells (KC-0405, Kangyuan Bochuang Biotechnology (Beijing) Co., Ltd.); Multifunctional microplate reader (BMG LABTECH, CLARIOstar® Plus); CO2 incubator (Thermo Scientific, Model 3100 Series).
Cell Culture and Inoculation: The cells in the logarithmic growth phase were harvested and cell counting was performed using a platelet counter. The cell viability was detected by Trypan Blue exclusion method to ensure that the cell viability was above 90%. The cell concentration was adjusted. After there were no visible air bubbles in the cell suspension, 180 μL of the cell suspension was added to each well of a 96-well plate respectively, so that the final concentration of methylcellulose was 0.65% and the number of cells was 2400 per well. The cells in the 96-well plate were cultured overnight at 37° C., 5% CO2 and 95% humidity.
The drug dilution and administration were carried out as follows: A 10-fold concentrated drug solution was prepared with the culture medium. 20 μL of the drug solution was added to each well of the 96-well plate inoculated with cells to make the maximum working concentration 10 μM, with a 3.16× dilution, a total of 9 concentrations. Three replicate wells were set for each drug concentration and the DMSO content was 0.1%. The cells in the 96-well plate with the added drugs were continuously cultured at 37° C., 5% CO2 and 95% humidity for 120 h, and then a CTG analysis was performed.
The CTG reagent was thawed and the cell plate was equilibrated to room temperature for 30 minutes. An equal volume of CTG solution was added to each well, and the plate was shaken on an orbital shaker for 5 minutes to lyse the cells. The cell plate was placed at room temperature for 20 minutes to stabilize the luminescence signal, and then the luminescence value was read.
The data were analyzed using GraphPad Prism 7.0 software. The data were fitted by nonlinear S-curve regression to obtain the dose-response curve, and the IC50 value was calculated accordingly. Cell survival rate (%)=(LumTest drug−LumMedium control)/(LumCell control−LumMedium control)×100%.

Experiment [3] has as its system KRAS G12D mutated AGS human gastric adenocarcinoma cells. As to the kind of experiment: Proliferation inhibition of KRAS G12D mutant AGS cells, another experiment with similar protocol (includes MRTX1133). The experiment is classed as cell-based. How it is done: In another experiment, using a protocol similar to the one described above, the inhibitory activity of some representative compounds of the present invention against KRAS G12D mutated AGS human gastric adenocarcinoma cells was determined.
The synthesis of compound MRTX1133 was performed according to the method described in J. Med. Chem. 2022, 65, 4, 3123-3133.

For a further experiment, the system named is AsPC-1 cells. As to the kind of experiment: 3D proliferation inhibition of KRAS G12D mutated tumor cells, AsPC-1. The experiment is classed as cell-based. Particulars: Homo sapiens, ASPC1, 3D methylcellulose culture, CTG, 120 hours. From the text: (§1) This experiment evaluated and verified the proliferation inhibitory activity of the representative compounds of the present invention against the following five strains of KRAS-related tumor cells.
(§2) The following materials, reagents and instruments were used in this experiment: Five strains of cells were all from Nanjing Kebai Biotechnology Co., Ltd. (GP2D, CBP60010; HPAC, CBP60539; AsPC-1, CBP60546; KP-4, CBP60541; Panc 04.03, CBP60683); DMEM (Gibco, 11965092); RPMI-1640 (Gibco, SH30809.01); HPAC complete medium (Cobioer, CBP60539M); Fetal bovine serum FBS (Gibco, 10091-148); Insulin (Gibco, 41400045); Methylcellulose (methylcellulose, Sigma, 9004-67-5); Phosphate-buffered saline DPBS (Comning, 21-031-CVC); CellTiter-Glo® Luminescent Cell Viability Assay (Promega, Cat #G7573); 96-well clear flat-bottom black-wall plate (Corning, 3603); EnVision multilabel plate reader (PerkinElmer #2105); CO2 incubator (Thermo Scientific, Model 3 71 Series).
A sterilized 1% methylcellulose 3D culture medium was prepared in advance. The cells in the logarithmic growth phase were harvested, and a Countstar automatic cell counter based on the principle of the classic trypan blue staining method was used for cell counting and detecting cell viability to ensure that the cell viability was above 90%. The cell concentrations of GP2D, HPAC, AsPC-1, KP-f4, and Panc 04.03 were adjusted so that the final concentration of methylcellulose was 0.65%, and the mixture was allowed to stand after being well-mixed. […]
(§3) The cells in the 96-well plate with the added drugs were further cultured at 37° C. and 5% CO2 for 120 hours, and then a CTG analysis was performed. […] The cell plate was placed at room temperature for 20 minutes to stabilize the luminescence signal. The luminescence value was read, and the data were collected.
(§4) The data were analyzed using GraphPad Prism 9.0 software. Non-linear S-curve regression was used to fit the data to obtain the dose-response curve, and the IC50 value (nM) was calculated accordingly. […]

A further experiment concerns HPAC cells. As to the kind of experiment: 3D proliferation inhibition of KRAS G12D mutated tumor cells, HPAC. The class given is cell-based, human. Particulars: 3D methylcellulose culture, CTG, 120 hours.
Description: as §1, §2
(§5) A sterilized 1% methylcellulose 3D culture medium was prepared in advance. The cells in the logarithmic growth phase were harvested, and a Countstar automatic cell counter based on the principle of the classic trypan blue staining method was used for cell counting and detecting cell viability to ensure that the cell viability was above 90%. The cell concentrations of GP2D, HPAC, AsPC-1, KP-f4, and Panc 04.03 were adjusted so that the final concentration of methylcellulose was 0.65%, and the mixture was allowed to stand after being well-mixed. After there were no visible air bubbles in the cell suspension, 80 μL of the cell suspension was added to each well of a 96-well plate, with a total of 1000-2000 cells. The cells in the 96-well plate were cultured overnight at 37° C., 5% CO2, and 95% humidity.
(§6) Drug Preparation for IC50 Determination: First, a 10 mM DMSO stock solution of each compound was prepared. For the first dilution, using DMSO as the solvent, each compound was first diluted to 5 mM and then serially diluted 3-fold to obtain 9 concentrations, preparing DMSO solutions of each compound at different concentrations. For the second dilution, a 5-fold diluted solution of each compound was prepared by a 1:100 dilution, using the complete medium as the solvent. […]
as §3, §4

In another experiment the test system is KP-4 cells. As to the kind of experiment: 3D proliferation inhibition of KRAS G12D mutated tumor cells, KP-4. The experiment is classed as cell-based. Particulars: CTG, 120 hours.
Description: as §1, §2, §5, §6, §3, §4

The test system of the next experiment is Panc 04.03 cells. Nature of the experiment: 3D proliferation inhibition of KRAS G12D mutated tumor cells, Panc 04.03. The experiment is classed as cell-based. Conditions: CTG, 120 hours.
Description: as §1, §2, §5, §6, §3, §4

Another experiment concerns GP2D cells. Nature of the experiment: 3D proliferation inhibition of KRAS G12D mutated tumor cells, GP2D. Conditions: 3D methylcellulose culture, CTG, 120 hours. The experiment is classed as cell-based, human.
Description: as §1, §2, §5, §6, §3, §4

Here are results for six compounds from patent publication US20260176284A1, “Compounds with Anti-KRAS Mutated Tumor Activity” (Trasveda Ltd., priority 2022, published 2026).

What is called IC50 is the midpoint of a concentration-inhibition curve. Take `C#Cc1c(F)ccc2cc(O)cc(-c3c(F)cc4c(N5CC6CCC(C5)N6)nc(OC[C@]5(C)CN(C)CCC5(F)F)nc4c3F)c12` [Example 6-2]: the IC50 in experiment [1] came to 32 nM; in experiment [2], 17 nM.
`C#Cc1c(F)ccc2cc(O)cc(-c3ncc4c(N5CC6CCC(C5)N6)nc(OC[C@@]56CCCN5C[C@H](F)C6)nc4c3F)c12` [MRTX1133, reference compound]: the 50% inhibitory concentration (IC50) is 28 nM in experiment [3] (Homo sapiens); 18.3 nM in the experiment on AsPC-1 cells; 8.19 nM in the experiment with HPAC cells (Homo sapiens, HPAC); 42.6 nM with KP-4 cells (Homo sapiens, KP-4, 3D methylcellulose culture); 20.6 nM in the experiment with Panc 04.03 cells (Homo sapiens, Panc 04.03, 3D methylcellulose culture); 3 nM in the experiment on GP2D cells (Homo sapiens, GP2d).
On to `CN1CC/C(=C\F)[C@](C)(COc2nc(N3C[C@H]4CC[C@@H](C3)N4)c3cc(Cl)c(-c4c(F)ccc5sc(N)c(C#N)c45)c(F)c3n2)C1` (single isomer, unassigned) [Example 324-1], for which the IC50 in experiment [3] was determined as 4 nM; with HPAC cells, 4.1 nM; in the experiment with KP-4 cells (3D methylcellulose culture) it was 4.74 nM; in the experiment on Panc 04.03 cells (3D methylcellulose culture), 1.34 nM; with GP2D cells it was 0.39 nM.
Take `C#Cc1c(F)ccc2cc(O)cc(-c3c(F)cc4c(N5CC6CCC(C5)N6)nc(OC[C@]5(C)CN(CC)CCC5(F)F)nc4c3F)c12` (atropisomer, axis not shown; (Ra)) [Example 43, (Ra)-4-(4-((1R,5S)-3,8-diazabicyclo[3.2.1]octan-3-yl)-2-(((S)-1-ethyl-4,4-difluoro-3-methylpiperidin-3-yl)methoxy)-6,8-difluoroquinazolin-7-yl)-5-ethynyl-6-fluoronaphthalen-2-ol]: the IC50 turned out to be 37 nM in experiment [1] and 11 nM in experiment [2].
Take `C#Cc1c(F)ccc2cc(O)cc(-c3c(F)cc4c(N5CC6CCC(C5)N6)nc(OC[C@]5(C)CN(CCF)CCC5(F)F)nc4c3F)c12` (atropisomer, axis not shown; (Ra)) [Example 44, (Ra)-4-(4-((1R,5S)-3,8-diazabicyclo[3.2.1]octan-3-yl)-2-(((S)-4,4-difluoro-1-(2-fluoroethyl)-3-methylpiperidin-3-yl)methoxy)-6,8-difluoroquinazolin-7-yl)-5-ethynyl-6-fluoronaphthalen-2-ol]: the IC50 is 217 nM in experiment [1] and 118 nM in experiment [2].
Take `C#Cc1c(F)ccc2cc(O)cc(-c3c(F)cc4c(N5CC6CCC(C5)N6)nc(OC[C@]5(C)CN(CC=C)CCC5(F)F)nc4c3F)c12` (atropisomer, axis not shown; (Ra)) [Example 42]: the IC50 in experiment [1] was 150 nM; in experiment [2] it was 47 nM.
